Reference: patent US11766628B2, “Purification and extraction of cannabinoids” (CHEMTOR, LP, priority 2020, dated 2023)

Experiment: Partition of cannabinoids between degummed cannabis oil miscella and water/ethanol/base extraction solvent in a fiber conduit contactor
Assay type: physicochemical
Design: scale not given here
Description: Degummed miscella from Example 1A were used to investigate the extraction of acid cannabinoids into a water/ethanol solvent using a fiber conduit contactor. Bases tested included sodium bicarbonate (NaHCO3), sodium carbonate (Na2CO3), potassium bicarbonate (KHCO3), and potassium carbonate (K2CO3). The hardness difference between a sodium and potassium radii (smaller radii are harder, larger radii are softer) creates a variation in the property of the resulting soaps. Sodium salts give a so-called “harder” soap that is more likely to be rejected from the crude miscella. Switching from bicarbonate to carbonate has two effects: (1) higher ion count in solution, thereby increasing ionic strength/polarity; and (2) increasing the pH by approximately 1 pH unit for the same wt % solution. This increased polarity can be used to enforce selectivity of the desired compounds.
As shown in the results below, there are multiple options for extracting specific combinations of cannabinoids. The bicarbonate bases gave a preference to acid cannabinoids, whereas the stronger carbonate bases were able to increase the total mass transfer. These parameters can be used to control the outflow product streams. The partition coefficients for various combinations are summarized in Table 3 and can be used to determine the optimal extraction solvent for a target compound or goal.
In Table 3 above, the Examples are ordered by decreasing polarity from top to bottom. A lower number specifies a preference for extraction and a high number specifies a preference to remain in the neutral oil. Blank squares are where coefficients could not be calculated.

[1] = Base K2CO3, H2O/EtOH/Base (wt %) 68.3/29.1/2.5
[2] = Base K2CO3, H2O/EtOH/Base (wt %) 77.9/19.5/2.6
[3] = Base K2CO3, H2O/EtOH/Base (wt %) 82.8/14.7/2.5
[4] = Base K2CO3, H2O/EtOH/Base (wt %) 87.5/10/2.5
[5] = Base Na2CO3, H2O/EtOH/Base (wt %) 68.4/29.1/2.5
[6] = Base Na2CO3, H2O/EtOH/Base (wt %) 73.2/24.2/2.6
[7] = Base Na2CO3, H2O/EtOH/Base (wt %) 77.6/19.9/2.5
[8] = Base Na2CO3, H2O/EtOH/Base (wt %) 82.9/14.5/2.6
[9] = Base Na2CO3, H2O/EtOH/Base (wt %) 87.8/9.7/2.6
[10] = Base NaHCO3, H2O/EtOH/Base (wt %) 67.8/29.7/2.4, lower = preference for extraction, higher = remains in neutral oil
[11] = Base NaHCO3, H2O/EtOH/Base (wt %) 72.9/24.6/2.5
[12] = Base NaHCO3, H2O/EtOH/Base (wt %) 77.9/19.6/2.5
[13] = Base NaHCO3, H2O/EtOH/Base (wt %) 81.2/16.3/2.5
[14] = Base NaHCO3, H2O/EtOH/Base (wt %) 879./9.7/2.4
[15] = Base KHCO3, H2O/EtOH/Base (wt %) 68.1/29.4/2.6
[16] = Base KHCO3, H2O/EtOH/Base (wt %) 73.1/24.3/2.6
[17] = Base K2CO3, H2O/EtOH/Base (wt %) 73.0/24.5/2.5
[18] = Base KHCO3, H2O/EtOH/Base (wt %) 78.0/19.5/2.5
[19] = Base KHCO3, H2O/EtOH/Base (wt %) 82.7/14.8/2.5
[20] = Base NaHCO3, H2O/EtOH/Base (wt %) 68.4/29.5/2.0
[21] = Base NaHCO3, H2O/EtOH/Base (wt %) 69.0/29.6/1.5
[22] = Base NaHCO3, H2O/EtOH/Base (wt %) 69.9/29.9/0.25

SMILES	Partition coefficient [1]	Partition coefficient [2]	Partition coefficient [3]	Partition coefficient [4]	Partition coefficient [5]	Partition coefficient [6]	Partition coefficient [7]	Partition coefficient [8]	Partition coefficient [9]	Partition coefficient [10]	Partition coefficient [11]	Partition coefficient [12]	Partition coefficient [13]	Partition coefficient [14]	Partition coefficient [15]	Partition coefficient [16]	Partition coefficient [18]	Partition coefficient [19]	other results
CCCCCc1cc(O)c2c(c1)OC(C)(CCC=C(C)C)C=C2 (stereo not shown) [CBC, cannabichromene]	0.6	0.23	0.23	0.16	−0.2	−0.16	−0.21	−0.14	0.22	0.54	0.83	1.42	1.33	1.21					
CCCCCc1cc2c(c(O)c1C(=O)O)C=CC(C)(CCC=C(C)C)O2 (stereo not shown) [CBCA, cannabichromenic acid]	0.22	−0.29	−0.25	−0.2	0.93	1.09	1.08	1.15	1.48	0.57	1.14		1.24	1.17	2.09	2.59			
C=C(C)[C@@H]1CCC(C)=C[C@H]1c1c(O)cc(CCCCC)cc1O [CBD, cannabidiol, reference compound]	0.55	0.19	0.19	0.1	−0.87	−0.86	−0.94	−0.9	−0.55	0.48	0.78	1.29	1.25	1.14	0.6	1.06	1.59	1.43	Partition coefficient [17]: 0.87; Partition coefficient [20]: 1.4; Partition coefficient [21]: 1.86
C=C(C)[C@@H]1CCC(C)=C[C@H]1c1c(O)cc(CCCCC)c(C(=O)O)c1O [CBDA, cannabidiolic acid]	0.04	−0.16	−0.08	0	−2.37	−2.22	−2.22	−2.11	−1.75	0.43	0.68	1.09	1.05	0.96	−1.02	−0.59	0.04	0.21	Partition coefficient [17]: 0.45; Partition coefficient (Base KHCO3, H2O/EtOH/Base (wt %) 86.3/11.3/2.5): 0.19; Partition coefficient [20]: −0.19; Partition coefficient [21]: 0.1; Partition coefficient (Base NaHCO3, H2O/EtOH/Base (wt %) 69.2/29.8/1.0): 0.22; Partition coefficient [22]: 0.38
CCCCCc1cc(O)c(C/C=C(\C)CCC=C(C)C)c(O)c1 [CBG, cannabigerol]		0.01	0.05	−0.07	1.58	1.6	1.53	1.59	1.91	0.46	0.76								Partition coefficient [22]: 2.62
CCCCCc1cc(O)c(C/C=C(\C)CCC=C(C)C)c(O)c1C(=O)O [CBGA, cannabigerolic acid]	0.15	−0.19	−0.15	−0.1	−0.57	−0.47	−0.5	−0.44	−0.14	0.46	0.76	1.2	1.19	1.1	0.33	0.72	1.4	1.61	
CCCCCc1cc(O)c2c(c1)OC(C)(C)[C@@H]1CCC(C)=C[C@@H]21 [THC, tetrahydrocannabinol, reference compound]	0.59	0.1	0.09	0.13	0.22	0.2	0.1	0.13	0.47	0.77	1.03	1.43	1.28	1.17					
CCCCCc1cc2c(c(O)c1C(=O)O)[C@@H]1C=C(C)CC[C@H]1C(C)(C)O2 [THCA, tetrahydrocannabinolic acid]	0.28	−0.09	−0.05	0.15	−0.18	−0.02	−0.02	0.06	0.41	0.91	1	1.33	1.16	1.12	1.26	1.76			
